In patent US9714243B2, “4-pyridinonetriazine derivatives as HIV integrase inhibitors” (Merck Sharp & Dohme Corp., priority 2012, dated 2017):
Read-outs that look alike come from different tables or passages of the source.

System: HIV-1 (NL4-3 strain)
Test: Assay for inhibition of HIV replication (ViKinG; infected MT4-GFP cells)
Assay type: cell-based
Procedure: Assay for inhibition of HIV replication
MT4-GFP cells (250,000 cells/ml) were bulk-infected with HIV-1 (NL4-3 strain) at low multiplicity of infection (MOI) in RPMI+10% FBS for 24 hours. […] Test compounds were serial-diluted in DMSO on ECHO. The infected MT4-GFP cells were added to a 384-well poly-D-lysine coated black plate with clear bottom in which the diluted test compounds were placed. The cells were seeded at 8,000 cells per well and the final DMSO concentration was 0.4%. The infected cells (Green GFP cells) were quantified at both 24 and 48 hours post incubation using Acumen eX3. Viral reproductive ratio (R0) was determined using the number of infected cells at 48 hours divided by the number of infected cells at 24 hours. Percent viral growth inhibition was calculated by [1−(R−Rtripledrug)/(RDMSO−Rtripledrug)]*100. Compound potency IP or IC50 was determined by a 4-parameter dose response curve analysis.

[1] = Human immunodeficiency virus 1, NL43, MT4-GFP cells infected with HIV-1 NL4-3, 0% normal human serum (NHS), read-out: ViKinG IP (nM) with 0% NHS
[2] = Human immunodeficiency virus 1, NL43, MT4-GFP cells infected with HIV-1 NL4-3, 100% normal human serum (NHS), read-out: ViKinG IP (nM) with 100% NHS
[3] = MT4-GFP cells infected with HIV-1 NL4-3, 0% normal human serum (NHS), read-out: ViKinG IP (nM) with 0% NHS
[4] = MT4-GFP cells infected with HIV-1 NL4-3, 100% normal human serum (NHS), read-out: ViKinG IP (nM) with 100% NHS
[5] = Human immunodeficiency virus 1, NL43, MT4-GFP cells infected with HIV-1 NL4-3, 10% normal human serum (NHS), read-out: ViKinG IP (nM) with 10% NHS
[6] = MT4-GFP cells infected with HIV-1 NL4-3, 10% normal human serum (NHS), read-out: ViKinG IP (nM) with 10% NHS

Row | SMILES | IC50 [1] | IC50 [2] | IC50 [3] | also measured
1 | CCN1C(=O)c2c(O)c(=O)c(-c3nnc(Cc4ccc(F)cc4F)s3)cn2N(C)C12CCC(c1nc(C)no1)CC2 (stereo not drawn) [Compound 46] | 6.78 nM | 139 nM |  | 
2 | CCN1C(=O)c2c(O)c(=O)c(-c3nnc(Cc4ccc(F)cc4F)s3)cn2N(C)C12CCC(c1nc(C)no1)CC2 (stereo not drawn) [Compound 47] |  |  | 11.6 nM | IC50 [4]: 186 nM
3 | CCN1C(=O)c2c(O)c(=O)c(-c3nnc(Cc4ccc(F)cc4F)s3)cn2N(C)C12CCC(C(F)(F)F)CC2 (stereo not drawn) [Compound 49] | 19.8 nM |  |  | IC50 [4]: 406 nM
4 | CCN1C(=O)c2c(O)c(=O)c(-c3nnc(Cc4ccc(F)cc4F)s3)cn2N(C)C12CCC(C(F)(F)F)CC2 (stereo not drawn) [Compound 50] |  |  | 25.6 nM | IC50 [4]: 5380 nM
5 | CCN1C(=O)c2c(O)c(=O)c(-c3nnc(Cc4ccc(F)cc4F)s3)cn2N(C)C12CCC(O)CC2 (stereo not drawn) [Compound 51] |  | 204 nM | 8.5 nM | 
6 | CCN1C(=O)c2c(O)c(=O)c(-c3nnc(Cc4ccc(F)cc4F)s3)cn2N(C)C12CCC(O)CC2 (stereo not drawn) [Compound 52] |  |  | 2.33 nM | IC50 [4]: 130 nM
7 | CCN1C(=O)c2c(O)c(=O)c(-c3nnc(Cc4ccc(F)cc4F)s3)cn2N(C)C12CCC(Oc1ccccc1)CC2 (stereo not drawn) [Compound 53] |  | 1030 nM | 15.7 nM | 
8 | CCN1C(=O)c2c(O)c(=O)c(-c3nnc(Cc4ccc(F)cc4F)s3)cn2N(C)C12CCC(Oc1ccccc1)CC2 (stereo not drawn) [Compound 54] |  |  | 82.8 nM | IC50 [4]: 1470 nM
9 | CCN1C(=O)c2c(O)c(=O)c(-c3nnc(Cc4ccc(F)cc4F)s3)cn2N(C)C12CCC(CO)CC2 (stereo not drawn) [Compound 55] | 6.46 nM | 279 nM |  | 
10 | CCN1C(=O)c2c(O)c(=O)c(-c3nnc(Cc4ccc(F)cc4F)s3)cn2N(C)C12CCC(F)(F)CC2 [Compound 56] | 12 nM | 1980 nM |  | 
11 | CCc1noc(C2CCC3(CC2)N(CC)C(=O)c2c(O)c(=O)c(-c4nnc(Cc5ccc(F)cc5F)s4)cn2N3C)n1 (stereo not drawn) [Compound 57] | 18.1 nM | 145 nM |  | 
12 | CCc1noc(C2CCC3(CC2)N(CC)C(=O)c2c(O)c(=O)c(-c4nnc(Cc5ccc(F)cc5F)s4)cn2N3C)n1 (stereo not drawn) [Compound 58] |  |  | 14.1 nM | IC50 [4]: 228 nM
13 | CCN1C(=O)c2c(O)c(=O)c(-c3nnc(Cc4ccc(F)cc4F)s3)cn2N(C)C12CCC(C)(OC)CC2 (stereo not drawn) [Compound 59] | 8.66 nM | 124 nM |  | 
14 | CCCOC1CCC2(CC1)N(CC)C(=O)c1c(O)c(=O)c(-c3nnc(Cc4ccc(F)cc4F)s3)cn1N2C (stereo not drawn) [Compound 60] |  | 226 nM | 10.8 nM | 
15 | CCCOC1CCC2(CC1)N(CC)C(=O)c1c(O)c(=O)c(-c3nnc(Cc4ccc(F)cc4F)s3)cn1N2C (stereo not drawn) [Compound 61] |  |  | 23.8 nM | IC50 [4]: 221 nM
16 | CCN1C(=O)c2c(O)c(=O)c(-c3nnc(Cc4ccc(F)cc4F)s3)cn2N(C)C12CCC(OC(C)C)CC2 (stereo not drawn) [Compound 62] |  |  | 8.11 nM | IC50 [4]: 159 nM
17 | CCN1C(=O)c2c(O)c(=O)c(-c3nnc(Cc4ccc(F)cc4F)s3)cn2N(C)C12CCC(OC(C)C)CC2 (stereo not drawn) [Compound 63] |  |  | 27.6 nM | IC50 [4]: 391 nM
18 | CCN1C(=O)c2c(O)c(=O)c(-c3nnc(Cc4ccc(F)cc4F)s3)cn2N(C)C12CCC(OCCOC)CC2 (stereo not drawn) [Compound 64] | 3.3 nM | 77.2 nM |  | 
19 | CCN1C(=O)c2c(O)c(=O)c(-c3nnc(Cc4ccc(F)cc4F)s3)cn2N(C)C12CCC(OCCOC)CC2 (stereo not drawn) [Compound 65] |  |  | 6.27 nM | IC50 [4]: 123 nM
20 | CCN1C(=O)c2c(O)c(=O)c(-c3nnc(Cc4ccc(F)cc4F)s3)cn2N(C)C12CCC(OCCOCCOC)CC2 (stereo not drawn) [Compound 66] | 12 nM | 93.9 nM |  | 
21 | CCN1C(=O)c2c(O)c(=O)c(-c3nnc(Cc4ccc(F)cc4F)s3)cn2N(C)C12CCC(OCCOCCOC)CC2 (stereo not drawn) [Compound 67] |  |  | 12.5 nM | IC50 [4]: 160 nM
22 | CN1C(=O)c2c(O)c(=O)c(-c3nnc(Cc4ccc(F)cc4F)s3)cn2N(C)C12CCC(OC(=O)C(Cl)Cl)CC2 (stereo not drawn) [Compound 68] |  |  |  | IC50 [5]: 10.5 nM
23 | CN1C(=O)c2c(O)c(=O)c(-c3nnc(Cc4ccc(F)cc4F)s3)cn2N(C)C12CCC(C)(O)CC2 (stereo not drawn) [Compound 69] |  |  | 22.6 nM | IC50 [6]: 84.7 nM
24 | CN1C(=O)c2c(O)c(=O)c(-c3nnc(Cc4ccc(F)cc4F)s3)cn2N(C)C12CCC(C)(O)CC2 (stereo not drawn) [Compound 70] |  |  | 9.9 nM | IC50 [6]: 39.1 nM
25 | COC1(C)CCC2(CC1)N(C)C(=O)c1c(O)c(=O)c(-c3nnc(Cc4ccc(F)cc4F)s3)cn1N2C (stereo not drawn) [Compound 72] | 6.07 nM |  |  | IC50 [5]: 9.93 nM

Row | SMILES | IC50 [1] | IC50 [2] | IC50 [3] | also measured
26 | COC1(C)CCC2(CC1)N(C)C(=O)c1c(O)c(=O)c(-c3nnc(Cc4ccc(F)cc4F)s3)cn1N2C (stereo not drawn) [Compound 73] |  |  | 7.04 nM | IC50 [6]: 11.9 nM
27 | CN1C(=O)c2c(O)c(=O)c(-c3nnc(Cc4ccc(F)cc4F)s3)cn2N(C)C12CCC(CO)CC2 (stereo not drawn) [Compound 74] | 6.84 nM |  |  | IC50 [5]: 23.6 nM
28 | CN1C(=O)c2c(O)c(=O)c(-c3nnc(Cc4ccc(F)cc4F)s3)cn2N(C)C12CCC(N)CC2 (stereo not drawn) [Compound 75] | 5.02 nM |  |  | IC50 [5]: 35.3 nM
29 | CN1C(=O)c2c(O)c(=O)c(-c3nnc(Cc4ccc(F)cc4F)s3)cn2N(C)C12CCCCCC2 [Compound 76] | 17.3 nM | 761 nM |  | IC50 [5]: 23.6 nM
30 | CN1C(=O)c2c(O)c(=O)c(-c3nnc(Cc4ccc(F)cc4F)s3)cn2N(C)C12C[C@H]1CC(O)C[C@H]1C2 (stereo partly drawn) [Compound 77] | 12.8 nM |  |  | IC50 [5]: 58 nM
31 | CN1C(=O)c2c(O)c(=O)c(-c3nnc(Cc4ccc(F)cc4F)s3)cn2N(C)C12CCC(O)C2 (stereo not drawn) [Compound 79] | 3.11 nM |  |  | IC50 [5]: 40.9 nM
32 | CN1C(=O)c2c(O)c(=O)c(-c3nnc(Cc4ccc(F)cc4F)s3)cn2N(C)C12CCC1C(=O)NC(=O)C1C2 (stereo not drawn) [Compound 80] | 50.1 nM | 915 nM |  | 
33 | CN1C(=O)c2c(O)c(=O)c(-c3nnc(Cc4ccc(F)cc4F)s3)cn2N(C)C12CCC1C(=O)NC(=O)C1C2 (stereo not drawn) [Compound 81] |  |  | 37.5 nM | IC50 [4]: 1610 nM
34 | CC(=O)NC1CCC2(CC1)N(C)C(=O)c1c(O)c(=O)c(-c3nnc(Cc4ccc(F)cc4F)s3)cn1N2C (stereo not drawn) [Compound 82] | 63.7 nM | 2560 nM |  | 
35 | CN1C(=O)c2c(O)c(=O)c(-c3nnc(Cc4ccc(F)cc4F)s3)cn2N(C)C12CCC(C)(C(=O)O)CC2 (stereo not drawn) [Compound 83] |  |  | 151 nM | IC50 [6]: 755 nM
36 | CN1C(=O)c2c(O)c(=O)c(-c3nnc(Cc4ccc(F)cc4F)s3)cn2N(C)C12CCC(C)(C(=O)O)CC2 (stereo not drawn) [Compound 84] |  |  | 51.5 nM | IC50 [6]: 209 nM
37 | CN1C(=O)c2c(O)c(=O)c(-c3nnc(Cc4ccc(F)cc4F)s3)cn2N(C)C12CCC(C)(CO)CC2 (stereo not drawn) [Compound 85] | 12.5 nM | 150 nM |  | IC50 [6]: 29.5 nM
38 | CN1C(=O)c2c(O)c(=O)c(-c3nnc(Cc4ccc(F)cc4F)s3)cn2N(C)C12CCC(C)(CO)CC2 (stereo not drawn) [Compound 86] |  |  | 6.34 nM | IC50 [6]: 94.3 nM; IC50 [4]: 185 nM
39 | CCN1C(=O)c2c(O)c(=O)c(-c3nnc(Cc4ccc(F)cc4)s3)cn2N(C)C12CCC(P(=O)(O)O)C2 (stereo not drawn) [Compound 87] | 626 nM | 2890 nM |  | 
40 | CN1C(=O)c2c(O)c(=O)c(-c3nnc(Cc4ccc(F)cc4F)s3)cn2N(C)C12CCC(C(=O)O)CC2 (stereo not drawn) [Compound 88] |  |  | 1280 nM | IC50 [6]: 4200 nM
41 | CN1C(=O)c2c(O)c(=O)c(-c3nnc(Cc4ccc(F)cc4F)s3)cn2N(C)C12CCC(C(=O)O)CC2 (stereo not drawn) [Compound 89] |  |  | 44.9 nM | IC50 [6]: 322 nM
42 | CCN1C(=O)c2c(O)c(=O)c(-c3nnc(Cc4ccc(F)cc4)s3)cn2N(C)C12CCC(C(=O)N(C)C)CC2 (stereo not drawn) [Compound 93] |  |  |  | IC50 [6]: 255 nM
43 | CCN1C(=O)c2c(O)c(=O)c(-c3nnc(Cc4ccc(F)cc4)s3)cn2N(C)C12CCC(C(=O)N(C)C)CC2 (stereo not drawn) [Compound 94] |  | 130 nM |  | IC50 [6]: 9.83 nM
44 | CCN1C(=O)c2c(O)c(=O)c(-c3nnc(Cc4ccc(F)cc4)s3)cn2N(C)C12CCC(C(=O)NC1CC1)CC2 (stereo not drawn) [Compound 96] | 8.63 nM | 171 nM |  | IC50 [5]: 16.2 nM
45 | CCN1C(=O)c2c(O)c(=O)c(-c3nnc(Cc4ccc(F)cc4)s3)cn2N(C)C12CCC(CC(=O)N(C)C)CC2 (stereo not drawn) [Compound 97] |  | 133 nM |  | IC50 [5]: 23.4 nM
46 | CCN1C(=O)c2c(O)c(=O)c(-c3nnc(Cc4ccc(F)cc4)s3)cn2N(C)C12CCC(CC(=O)N(C)C)CC2 (stereo not drawn) [Compound 98] |  |  |  | IC50 [6]: 32.2 nM; IC50 [4]: 168 nM
47 | CCN1C(=O)c2c(O)c(=O)c(-c3nnc(Cc4ccc(F)cc4)s3)cn2N(C)C12CCC(CC(=O)N(C)C)C2 (stereo not drawn) [Compound 99] |  | 122 nM |  | IC50 [5]: 34.9 nM
48 | CCN1C(=O)c2c(O)c(=O)c(-c3nnc(Cc4ccc(F)cc4F)s3)cn2N(C)C12CCC(C(=O)N(C)C)CC2 (stereo not drawn) [Compound 100] | 7.51 nM | 111 nM |  | IC50 [6]: 6.47 nM
49 | CCN1C(=O)c2c(O)c(=O)c(-c3nnc(Cc4ccc(F)cc4F)s3)cn2N(C)C12CCC(C(=O)N(C)C)CC2 (stereo not drawn) [Compound 101] |  |  |  | IC50 [6]: 37.5 nM
50 | CCN1C(=O)c2c(O)c(=O)c(-c3nnc(Cc4ccc(F)cc4F)s3)cn2N(C)C12CCC(C(=O)N(C)CC(F)(F)F)CC2 (stereo not drawn) [Compound 102] | 12.2 nM | 170 nM |  | 
